Assay results: article PMC9585939, “Unveiling a family of spiro-β-lactams with anti-HIV and antiplasmodial activity via phosphine-catalyzed [3+2] annulation of 6-alkylidene-penicillanates and allenoates” (Frontiers in Chemistry, 2022)
Where two headings read alike, the source gives them in different places.

Columns and labels:
[1] = Cellular viability assay (alamarBlue) in TZM-bl cells; format: cell-based; conditions: human, 50% cytotoxic concentration
HIV-1 SG3.1 [2] = test: microbe, parasite or virus in culture; conditions: for IC50 / IC90: 48 h; for IC90: read-out: IC90 HIV-1; for inhibition at 25 µg/mL: read-out: MPI (%) 25 μg/mL
HIV-2 03PTHCC19 [3] = test: microbe, parasite or virus in culture; conditions: Human immunodeficiency virus 2, TZM-bl; for IC50 / IC90: 48 h; for IC50: read-out: IC50 HIV-2; for IC90: read-out: IC90 HIV-2; for inhibition at 25 µg/mL: read-out: MPI (%) 25 μg/mL
P. berghei hepatic stage [4] = test: In vitro hepatic infection of Huh7 cells by luciferase-expressing P. berghei; format: cell-based; conditions: Plasmodium berghei; for inhibition at 1 µM: Huh-7, read-out: percentage of inhibition of hepatic infection; for IC50: Huh-7, hepatic stage, Huh7 cells, 48 h after infection
Experimental: The inhibitory activity of test compounds on in vitro hepatic infection by P. berghei was determined by comparing the parasite load in compound- and solvent-treated P. berghei-infected Huh7 cells. Infection load was assessed by measurement of luminescence intensity in Huh7 cells infected, with a firefly luciferase-expressing P. berghei line, as previously described ([Ploemen et al., 2009]; [António et al., 2017]). Briefly, Huh7 cells were seeded in 96-well plates (1.0 × 10^4 cells per well) the day before drug treatment and infection. The medium was replaced by another medium containing the appropriate concentration of each compound approximately 1 h prior to infection with sporozoites freshly obtained through disruption of salivary glands of infected female Anopheles stephensi mosquitoes. Sporozoite addition was followed by centrifugation at 1,800 g for 5 min. Parasite infection load was measured 48 h after infection by a bioluminescence assay (Biotium). Cell confluence, a surrogate measure of compound toxicity to Huh7 cells, was assessed by fluorescence measurements using the alamarBlue assay, according to the manufacturer’s instructions. […] Specifically, non-linear regression analysis was employed to fit the normalized results of the dose-response curves, and IC50 values were determined using GraphPad Prism 8.0 (GraphPad Software, La Jolla, California, United States).

[5] = tested on: P. falciparum strain NF54; test: Blood stage antiplasmodial activity, SYBR green I flow cytometry; format: cell-based; conditions: Plasmodium falciparum, NF54, 48 h
Experimental: Ring-stage synchronized cultures of P. falciparum strain NF54 at 2.5% hematocrit and at approximately 1% parasitemia were incubated with test compounds or dimethyl sulfoxide (DMSO, vehicle control) in 96-well plates for 48 h at 37°C in a 5% CO2 and 5% O2 atmosphere. Stock solutions of chloroquine (positive control) and compounds 9i, 12a, and 14a were prepared in DMSO. Working solutions were prepared from the stock solutions in complete malaria culture medium (CMCM), which consists of RPMI 1640 supplemented with 25 mM HEPES, 2.4 mM L-glutamine, 50 μg/ml gentamicin, 0.5% w/v Albumax, 11 mM glucose, 1.47 mM hypoxanthine, and 37.3 mM NaHCO3. For each measurement, 5 μl of the culture (approximately 800,000 cells) were stained with the DNA-specific dye SYBR green I. After 20 min of incubation in the dark, the stained sample was analyzed by flow cytometry. Approximately 100,000 events were analyzed in each flow cytometry measurement. Two independent experiments were performed, and all samples were analyzed in triplicate.

TZM-bl cells = tested on: TZM-bl cells; design: method as in Bártolo et al., 2021; conditions: lead molecule, ref Bártolo et al., 2021; cited from earlier work
HIV-1 SG3.1 [6] = conditions: ref Bártolo et al., 2021, cited from earlier work
HIV-2 03PTHCC19 [7] = tested on: HIV-2 03PTHCC19; design: method as in Bártolo et al., 2021; conditions: ref Bártolo et al., 2021, cited from earlier work
P. berghei hepatic stage [8] = tested on: P. berghei hepatic stage; design: method as in Bártolo et al., 2021; Alves et al., 2021c; conditions: hepatic infection; ref Bártolo et al., 2021; Alves et al., 2021c; cited from earlier work
[9] = tested on: P. falciparum strain NF54; design: method as in Bártolo et al., 2021; Alves et al., 2021c; conditions: erythrocytic infection; ref Bártolo et al., 2021; Alves et al., 2021c; cited from earlier work
HIV protease = tested on: HIV protease; design: method as in Bártolo et al., 2021; conditions: ref Bártolo et al., 2021; cited from earlier work
[10] = Human immunodeficiency virus 1, TZM-bl, read-out: IC50 HIV-1, TZM-bl cells, 48 h
[11] = Human immunodeficiency virus 1, TZM-bl

Structure (SMILES) | CC50 [1] [µM] | IC50 (HIV-1 SG3.1 [2]; [10]) [nM] | IC90 (HIV-1 SG3.1 [2]; [11]) [nM] | inhibition at 25 µg/mL (HIV-1 SG3.1 [2]; [11]) [%] | IC50 (HIV-2 03PTHCC19 [3]) [nM] | IC90 (HIV-2 03PTHCC19 [3]) [nM] | inhibition at 25 µg/mL (HIV-2 03PTHCC19 [3]) [%] | inhibition at 1 µM (P. berghei hepatic stage [4]) [%] | IC50 (P. berghei hepatic stage [4]) [nM] | IC50 [5] [nM] | melting point [°C] | further results
CC1(C)SC2N(C(=O)C23CC=C(C(=O)OCc2ccccc2)C3C(=O)c2ccc(F)cc2)C1C(=O)OC(c1ccccc1)c1ccccc1 (stereo not drawn) [Compound 12a, (1′R,2′R)-benzhydryl spiro[(2-(4-fluorobenzoyl)-3-benzyloxycarbonylcyclopent-3-ene)-1′,6-penicillanate]] | 58.1 | 19 | 54 | 93 | 11 | 55 | 100 | < 50 | 924 ± 27 | 560 ± 126 | 64.5 to 66.5 | –
COc1ccc(COC(=O)C2=CCC3(C(=O)N4C(C(=O)OC(c5ccccc5)c5ccccc5)C(C)(C)SC43)C2C(=O)c2ccc(F)cc2)cc1 (stereo not drawn) [Compound 14a, (1′R,2′R)-benzhydryl spiro[(2-(4-fluorobenzoyl)-3-(4-methoxybenzyloxycarbonyl)cyclopent-3-ene)-1′,6-penicillanate]] | 75.1 | < 20 | 48 | 100 | 13 | 51 | 100 | < 50 | 750 ± 107 | 292 ± 62 | 72.9 to 74.9 | IC50 (HIV-1 SG3.1 [2]; read-out: IC50 HIV-1, TZM-bl cells): 12 nM
COc1ccc(COC(=O)C2=CCC3(C(=O)N4C(C(=O)OC(c5ccccc5)c5ccccc5)C(C)(C)SC43)C2C(=O)c2ccccc2)cc1 (stereo not shown) [Compound 9i, (1’R,2’R)-Benzhydryl spiro[(2-benzoyl-3-(4-methoxybenzyloxycarbonyl)cyclopent-3-ene)-1’,6-penicillanate]] | 35.8 | 15 | 20 | 100 | 111 | 350 | 100 | < 50 | 285 ± 44 | 336 ± 67 | 65.3 to 67.4 | –
CC1(C)SC2N(C(=O)C23CC=C(C(=O)OCc2ccccc2)C3C(=O)c2ccccc2)C1C(=O)OC(c1ccccc1)c1ccccc1 (stereo not shown) [BSS-730A] | – | – | – | – | – | – | – | – | – | – | – | CC50 (TZM-bl cells): 76.8 µM; MPI (%) 25 μg/mL (HIV-1 SG3.1 [6]; HIV-1, 25 μg/mL, lead molecule): 99%; Therapeutic index (CC50/IC50) (HIV-1 SG3.1 [6]; HIV-1, lead molecule): 5488.57; IC90 (HIV-1 SG3.1 [6]; lead molecule): 25 nM; IC50 (HIV-1 SG3.1 [6]; Alves et al., 2021c): 14 nM; MPI (%) 25 μg/mL (HIV-2 03PTHCC19 [7]; HIV-2, 25 μg/mL, lead molecule): 99%; Therapeutic index (CC50/IC50) (HIV-2 03PTHCC19 [7]; HIV-2, lead molecule): 9605.00; IC90 (HIV-2 03PTHCC19 [7]; lead molecule): 64 nM; IC50 (HIV-2 03PTHCC19 [7]): 8 nM; IC50 (P. berghei hepatic stage [8]): 550 ± 140 nM; IC50 [9]: 430 ± 40 nM; HIV antiprotease activity (in words) (HIV protease): no HIV antiprotease activity
